Data published in paper PMC12316928, “Synthesis and evaluation of novel thiohydantoin derivatives for antidiabetic activity using in silico in vitro and in vivo methods” (Scientific Reports, 2025).
Values after ≈ are worked out from the molar mass of the structure shown. Values joined by “and” are separate entries in the source; they are usually repeats but may differ in a detail not shown here. Equal entries are not always repeated. “Also recorded” adds a separate entry of the source. Where two headings read alike, the source gives them in different places.

Tests used:
α-amylase = target: T1, α-amylase (Sus scrofa, UniProt P00690); experiment: α-Amylase inhibitory activity assay (DNSA method); format: biochemical
T1 sequence (P00690 16-511): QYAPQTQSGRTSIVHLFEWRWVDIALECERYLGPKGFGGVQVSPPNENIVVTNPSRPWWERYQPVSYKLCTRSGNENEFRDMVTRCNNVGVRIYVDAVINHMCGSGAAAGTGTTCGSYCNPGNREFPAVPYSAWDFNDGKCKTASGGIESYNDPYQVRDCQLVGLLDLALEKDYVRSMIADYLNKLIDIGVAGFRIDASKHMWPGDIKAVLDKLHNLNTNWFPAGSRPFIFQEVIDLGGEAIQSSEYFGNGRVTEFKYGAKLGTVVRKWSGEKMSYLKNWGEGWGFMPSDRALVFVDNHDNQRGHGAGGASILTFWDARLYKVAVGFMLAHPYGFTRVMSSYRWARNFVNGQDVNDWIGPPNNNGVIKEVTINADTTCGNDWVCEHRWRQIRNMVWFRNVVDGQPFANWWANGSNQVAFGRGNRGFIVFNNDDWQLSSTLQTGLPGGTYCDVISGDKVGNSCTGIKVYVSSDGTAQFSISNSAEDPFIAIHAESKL
Protocol: The inhibitory potential of the synthesized derivatives against α-amylase was determined using the DNSA (3,5-dinitrosalicylic acid) colorimetric method, as reported by Bernfeld[37]. The α-amylase enzyme (from Sigma-Aldrich) was prepared in 20 mM sodium phosphate buffer (pH 6.9). […] After incubation, 100 µL of DNSA reagent was added, and the mixture was heated at 85 °C for 15 min. The reaction was stopped by cooling, and the absorbance was measured at 595 nm. A blank control was prepared to adjust background absorbance, and the percentage inhibition was calculated.

[1] = DPPH free radical scavenging assay
Protocol: The antioxidant activity of synthesized compounds was evaluated using the DPPH free-radical scavenging assay, following the methodology outlined by[34]. This assay is based on the principle that the stable free radical DPPH undergoes a color change from deep purple to yellow upon reduction, indicating hydrogen donation from antioxidant compounds. Different concentrations (3.12, 6.25, 12.5, 25, 50, 100, and 200 µg/mL) of test compounds were prepared in methanol. A 200 µL aliquot of each concentration was mixed with 50 µL of freshly prepared DPPH solution (0.659 mM). The reaction mixtures were incubated at room temperature for 20 min in the dark. Absorbance was recorded at 510 nm using an ELISA microplate reader. Trolox was employed as the reference antioxidant, and the percentage of inhibition was calculated using the following equation:
% Inhibition = [(A0 − A1)/A0] × 100.
Where A0 is the absorbance of the control, and A1 is the absorbance of the sample[34].

3T3 fibroblast cell line = experiment: Cytotoxicity MTT assay; format: cell-based; conditions: for IC₅₀ cytotoxicity MTT: 48 h, Mean ± SD, n = 3
Protocol: (§1) The cytotoxic effects of the selected compounds were evaluated against the 3T3 fibroblast cell line (Sigma-Aldrich, product no. 90020107) using the MTT (3-(4,5-dimethylthiazol-2-yl)−2,5-diphenyl tetrazolium bromide) assay, following the protocol established by Mosmann[38]. A cell suspension containing 1 × 10⁵ cells per well was seeded into a 96-well plate and incubated at 37 °C with 5% CO₂ for 48 h. The cells were then treated with different concentrations of test compounds (4, 16, 63, 250, and 1000 µg/mL, dissolved in DMSO) and incubated for an additional 48 h. Following incubation, 180 µL of MTT solution (5 mg/mL in PBS) was added to each well and incubated for 4 h. The formazan crystals formed were solubilized, and absorbance was measured at 570 nm using an ELISA reader. Celecoxib was used as a positive control.

Cytotoxicity MTT assay = format: cell-based; conditions: mouse, 3T3 fibroblast cells, 48 h, Mean ± SD, n = 3, read-out: IC₅₀ cytotoxicity MTT
Protocol: as §1

[2] = tested on: STZ-induced diabetic rats; experiment: Fasting blood glucose and oral glucose tolerance test (OGTT); format: in vivo, Sprague Dawley rats; conditions: for OGTT (after 120 min): 120 min after glucose 2.0 g/kg; for Fasting blood glucose: Table 7, mean ± SD, 5 rats per group; for FBG and OGTT reduction in words: compared to diabetic control
Protocol: […] After 5 days of streptozotocin injection, the tail vein blood will be collected to determine the fasting blood glucose (FBG) level. Only rats with FBG over 200 mg/dl will be considered diabetic and used for further experimentation.
This assay will be performed in animals after fasting for an overnight (12 h). Then, rats will receive a bolus of glucose (2.0 g/kg body weight) followed by test molecule or control and plasma glucose will be measured from blood collected from tail vein at 0, 30, 60, 90 and 120 min after glucose administration. Plasma glucose levels will be analyzed using commercially available glucometer kits[40].

[3] = tested on: STZ-induced diabetic rats; experiment: Physiological parameters (lipid profile); format: in vivo, Sprague Dawley rats; conditions: Fig. 1
Protocol: (§2) Diabetes will be induced in rats (n = 6 per group) by a single intraperitoneal injection of 60-100 mg/kg body weight (BW) streptozotocin dissolved in normal saline. After 5 days of streptozotocin injection, the tail vein blood will be collected to determine the fasting blood glucose (FBG) level. Only rats with FBG over 200 mg/dl will be considered diabetic and used for further experimentation.
Animals will be sacrificed after […] of treatment and parameters including LDL, triglycerides, HDL cholesterol, and glucose will be determined by using KONELAB SYSTEM (Thermo Fisher Scientific, Finland) according to manufacturer’s guidelines.

[4] = target: T2, α-glucosidase (EC3.2.1.20) (Saccharomyces cerevisiae, UniProt P53341); experiment: α-Glucosidase inhibitory activity assay; format: biochemical; conditions: for inhibition at 200 µg/mL: read-out: %Inhibition (200 µg/ml) alpha glucosidase
T2 construct: purchased Sigma-Aldrich
Protocol: The ability of the synthesized compounds to inhibit α-glucosidase was determined as per the method described by[35]. […] After incubation at 37 °C for 10 min, the reaction was initiated by adding 25 µL of substrate (4 mM) and further incubating at 37 °C for 20 min. The absorbance was measured at 405 nm.

[5] = tested on: STZ-induced diabetic rats; experiment: Effect on FBG, body weight and HbA1C over 6 weeks; format: in vivo, Sprague Dawley rats; set-up: % Reduction in FBG: concentration or dose not given beside the values
Protocol: as §2
Diabetic Rats (n = 6 per group) will be randomly assigned to groups of six animals each in order to examine the impact of synthetic derivatives on FBG level, BW, and HbA1C. The course of treatment will last for six weeks. At the beginning of the experiment and at weekly intervals during the first 42 days of therapy, the FBG level and BW will be measured. Rats will be denied food for 12 h while fasting, but they will have unrestricted access to water. Commercial glucose oxidase kits will be used to measure the blood glucose level. Blood 7 will be collected through cardiac puncture at the end of study period and levels of HbA1C will be determined. Metformin will be used as standard for comparison purpose.

T2 sequence (P53341 whole entry): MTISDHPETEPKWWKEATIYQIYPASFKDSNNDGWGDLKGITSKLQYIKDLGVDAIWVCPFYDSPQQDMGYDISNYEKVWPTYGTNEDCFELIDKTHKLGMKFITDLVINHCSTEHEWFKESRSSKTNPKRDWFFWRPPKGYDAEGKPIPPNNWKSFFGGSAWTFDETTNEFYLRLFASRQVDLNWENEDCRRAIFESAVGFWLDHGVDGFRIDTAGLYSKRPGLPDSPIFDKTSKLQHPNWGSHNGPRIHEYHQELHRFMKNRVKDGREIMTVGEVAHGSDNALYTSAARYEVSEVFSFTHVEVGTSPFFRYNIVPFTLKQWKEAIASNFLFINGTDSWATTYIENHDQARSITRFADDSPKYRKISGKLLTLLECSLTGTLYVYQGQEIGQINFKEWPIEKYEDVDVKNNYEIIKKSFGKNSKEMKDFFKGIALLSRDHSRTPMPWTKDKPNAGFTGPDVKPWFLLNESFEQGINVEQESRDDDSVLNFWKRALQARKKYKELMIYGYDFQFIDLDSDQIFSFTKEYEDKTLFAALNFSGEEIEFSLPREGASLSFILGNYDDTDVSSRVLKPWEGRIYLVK

Row | Structure (SMILES) | alpha-amylase inhibition in words (α-amylase) | DPPH free radical scavenging % inhibition ([1]; 3.12 µg/mL) | DPPH free radical scavenging % inhibition ([1]; 6.25 µg/mL) | DPPH free radical scavenging % inhibition ([1]; 12.5 µg/mL) | DPPH free radical scavenging % inhibition ([1]; 25 µg/mL) | DPPH free radical scavenging % inhibition ([1]; 50 µg/mL) | DPPH free radical scavenging % inhibition ([1]; 100 µg/mL) | DPPH free radical scavenging % inhibition ([1]; 200 µg/mL) | Cytotoxicity category (3T3 fibroblast cell line) | IC₅₀ cytotoxicity MTT (3T3 fibroblast cell line) | IC50 at 48 h (Cytotoxicity MTT assay) | OGTT (after 120 min) [2] | Fasting blood glucose [2] | FBG and OGTT reduction in words [2] | inhibition at 200 µg/mL [4] | alpha-glucosidase inhibition in words [4] | also measured
1 | C[C@H]1O[C@H](O[C@H]2[C@H](O)[C@@H](O)[C@@H](O[C@H]3[C@H](O)[C@@H](O)C(O)O[C@@H]3CO)O[C@@H]2CO)[C@H](O)[C@@H](O)[C@@H]1N[C@H]1C=C(CO)[C@@H](O)[C@H](O)[C@H]1O (some centres unmarked) [Acarbose, reference compound] | – | – | – | – | – | – | – | – | – | – | – | – | – | – | – | – | %Inhibition alpha amylase (α-amylase; positive control Acarbose 50 µg/ml, Mean ± SD): 92.23 ± 1.08%
2 | CC(=O)Nc1ccc(S(=O)(=O)N2CC(=O)NC2=S)cc1 [FP1, N-[4-(4-oxo-2-sulfanylideneimidazolidine-1-sulfonyl)phenyl]acetamide] | lack of inhibition | 12.5 ± 1.1% | 24.7 ± 1.8% | 38.1 ± 2.3% | 51.5 ± 2.7% | 58.9 ± 2.9% | 63.4 ± 3.0% | 67.3 ± 3.2% | negligible cytotoxicity; also recorded: Non-toxic | > 1000 ± 0.0 µg/mL | > 900 µg/mL | 310.3 ± 10.7 mg/dL | 245.9 ± 8.2 mg/dL | mild but significant activity | 45.7 ± 1.12% | – | IC₅₀ (concentration required to inhibit 50% of DPPH free radicals) [1]: 76.5 ± 2.9 µg/mL; lipid profile effect in words [3]: marginal effects; BW (Day 0) ([5]; Day 0, baseline): 217.5 ± 8.3 g; FBG (Day 0) ([5]; Day 0, baseline): 282.8 ± 10.3 mg/dL; % Change in BW ([5]; Day 0 to Day 42): −8.7%; % Reduction in FBG ([5]; Day 0 to Day 42): 17.6%; BW (Day 42) ([5]; Day 42 of treatment): 198.6 ± 7.8 g; FBG (Day 42) ([5]; Day 42 of treatment): 232.9 ± 9.7 mg/dL; HbA1C ([5]; end of 6-week treatment): 8.1% and 8.1 ± 0.4%
3 | Cc1ccc(S(=O)(=O)N2CC(=O)NC2=S)cc1 [FP3, 1-(4-methylbenzene-1-sulfonyl)−2-sulfanylideneimidazolidin-4-one] | lack of inhibition | 9.2 ± 0.9% | 18.5 ± 1.4% | 27.9 ± 1.8% | 38.3 ± 2.1% | 45.7 ± 2.3% | 51.2 ± 2.5% | 55.8 ± 2.7% | Low cytotoxicity | – | 722 ± 15.3 µg/mL (≈ 2670 µM) | 320.8 ± 11.3 mg/dL | 255.7 ± 9.0 mg/dL | minor reductions | – | inactive | inhibition at 200 µg/mL ([4]; sample concentration 200 µg/ml, Mean ± SD): 29.4 ± 1.08%
4 | O=C1CN(S(=O)(=O)c2cc(C(=O)O)ccc2Cl)C(=S)N1 [FP7, 4-chloro-3-(4-oxo-2-sulfanylideneimidazolidine-1-sulfonyl)benzoic acid] | lack of inhibition | 7.6 ± 0.7% | 14.8 ± 1.0% | 21.5 ± 1.4% | 30.2 ± 1.8% | 39.5 ± 2.0% | 43.7 ± 2.3% | 47.2 ± 2.5% | negligible cytotoxicity; also recorded: Non-toxic | > 1000 ± 0.0 µg/mL | > 900 µg/mL | 325.0 ± 11.6 mg/dL | 258.2 ± 9.4 mg/dL | minor reductions | 27.3 ± 0.91% | inactive | –
